Results on 151 molecules are retold here after PubChem BioAssay AID1188 (EPA DSSTox, 2008).

Calls of active or inactive are those of the source.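 Rule for the calls: active = a concentration killing half the fathead minnows in the acute test was determined; inconclusive = some fish died but not half at top dose; inactive = no fish died even at top dose.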

The test system of this data set is Fathead minnow (Pimephales promelas) acute toxicity, lethality. As to the kind of experiment: DSSTox (EPAFHM) EPA Fathead Minnow Acute Toxicity. The method, boiled down:
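Activity score is an integer 1–100 scaling of log10(1/LC50 in mmol) between dataset minimum and maximum, highest potency = 100. Underlying LC50 values (mg) come from the U.S. EPA MED database.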
With `[N-]=[N+]=[N-]`, the Potency was 84 µM.

For `CC(C)C(O)C(C)C`, the Potency was 1400 µM. Regarding `CC(C)c1cccc(C(C)C)c1N`, the Potency is 86.3 µM. For `CCCCOC(C)=O`, the Potency was 155 µM.

Regarding `C#CCN(CC#C)CC#C`, the Potency was 2260 µM. As for `BrCCCBr`, the Potency was 10.4 µM. Take `CC(=O)/C=C/C1=C(C)CCCC1(C)C`: the Potency is 26.5 µM. Regarding `Cc1cccnc1`, the Potency is 1550 µM. For `CN(C)CCCCl`, the Potency was 841 µM. Same read-out and setting: then `CCOP(=S)(OCC)SCSc1ccc(Cl)cc1`, with 0.7 µM. For the molecule `O=c1cc[nH]c(=O)[nH]1`, the outcome is “inactive; moa not determined either due to lack of toxicity at saturation or late test res”. Turning to `Cc1cocn1`, the Potency is 16700 µM. Still for that read-out and setting: then `Nc1ccc(Cl)c(Cl)c1`, with 46.7 µM; and `CN(C)c1ccc(C=O)cc1`, with 306 µM; and `CC(C)C1=CC2=CC[C@@H]3[C@](C)(CCC[C@@]3(C)C(=O)O)[C@H]2CC1`, with 7.87 µM.

As for `Brc1nc(Br)c(Br)[nH]1`, the Potency is 20.1 µM. Regarding `C#CC(C)(O)CCC(C)C` (stereo unspecified), the Potency is 349 µM. The same measure, in the same setting: then `O=C(NC1CCCCC1)OCCCl`, with 170 µM; and `CCc1ccc(O)cc1`, with 85.1 µM; and `CCCCCCCN`, with 189 µM.

For `CC(C)(C)SSC(C)(C)C`, the Potency is 7.68 µM. The same measure, in the same setting: then `COC(=O)c1ccc(C(=O)OC)c(N)c1`, with 42.7 µM. As for `Nc1ccc(Cl)cc1`, the Potency is 246 µM.

With `Oc1c(I)cc(I)cc1I`, the Potency was 2.56 µM.

Regarding `CC#N`, the Potency is 40100 µM. On to `Cc1c(Cl)cccc1NC=O`, for which the Potency was 275 µM. With `Cc1ccc(S(=O)(=O)n2ccnc2)cc1`, the Potency is 188 µM.

On to `CCOP(=S)(OCC)SCCSCC`, for which the Potency was 9.95 µM. The same measure, in the same setting: then `CNC(=O)Oc1ccccc1OC(C)C`, with 42.1 µM. Same read-out and setting: under `CC(=O)CC(C)=O` stands 1350 µM.

Regarding `Oc1c(O)c(Cl)c(Cl)c(Cl)c1Cl`, the Potency was 5.12 µM. For the molecule `COc1cccc(OC)c1C`, the Potency is 133 µM. For the molecule `CCCCCCO`, the Potency was 956 µM. As for `CCOC(N)=O`, the Potency is 58800 µM. Same read-out and setting: under `Nc1ccc(F)cc1` stands 152 µM; under `CC1(C)OCC(CO)O1` (stereo unspecified), 126000 µM. On to `CCCCc1ccc(N)cc1`, for which the Potency is 68 µM. Take `O=[N+]([O-])c1c(Cl)cc(Cl)c([N+](=O)[O-])c1Cl`: the Potency was 0.818 µM. Regarding `Oc1c(Br)cc(Br)cc1Br`, the Potency was 19.8 µM. Same read-out and setting: under `CCCCCCCCc1ccc(N)cc1` stands 0.584 µM; under `O=[N+]([O-])c1ncccc1O`, 1190 µM; under `COc1ccccc1C(N)=O`, 794 µM.

Take `NCCCN`: the Potency was 16100 µM.

Take `Cc1ccc(Cl)c(Cl)c1`: the Potency is 18.1 µM.

Turning to `CCCCCC`, the Potency is 29 µM. As for `CCC(C)(C)c1ccc(O)cc1`, the Potency is 15.8 µM. The same measure, in the same setting: under `CCC(=O)O` stands 49900 µM; under `C=CC(Cl)CCl` (stereo unspecified), 65.4 µM. Still for that read-out and setting: under `O=Cc1ccc(Oc2ccccc2)cc1` stands 23.2 µM; under `CC(C)(C)CC(C)(C)N`, 190 µM.

On to `C=CCC#N`, for which the Potency is 2710 µM. Same read-out and setting: under `Cc1ccccc1C=O` stands 440 µM. Regarding `C=C(C)C(=O)OCc1ccccc1`, the Potency was 26.5 µM. Take `c1ccc2c(c1)CCO2`: the Potency is 680 µM. Take `CC1(N)CCC(C(C)(C)N)CC1` (stereo unspecified): the Potency was 383 µM.

For `CC1(C)CC(=O)CC(=O)C1`, the Potency is 82000 µM.

Consider `Oc1ccc(Cl)cc1`, for which the Potency was 47.5 µM. Take `OCCN1CCOCC1`: the Potency is 20700 µM. In the case of `CC(C)(C)CN`, the Potency was 5450 µM.

For `CCCCCCN`, the Potency is 559 µM. Take `C=C(C)C(=O)OC(C)C`: the Potency was 296 µM. `CCOC(=O)CCCCC(=O)OCC`: the Potency is 89.9 µM.

Consider `Cc1ncc[nH]1`, for which the Potency was 3480 µM. On to `O=[N+]([O-])c1ccccc1Oc1ccc(Cl)cc1`, for which the Potency is 7.69 µM. Same read-out and setting: under `CCOC(=O)c1ccc(N)cc1` stands 216 µM; under `N#CCCCCCCC#N`, 3880 µM; under `Nc1cccc(OCc2ccccc2)c1`, 45.9 µM.

Turning to `CC(=O)CCC=C(C)C`, the Potency is 679 µM. On to `O=C1CCCCC1`, for which the Potency is 6330 µM. On the same count and under the same terms, under `CCCCCCCBr` stands 8.21 µM. Turning to `O=c1cc(-c2ccccc2)oc2ccccc12`, the Potency was 15.7 µM. Still for that read-out and setting: then `CC1CNCCN1` (stereo unspecified), with 22400 µM.

`OCCN(CCO)c1ccccc1`: the Potency was 4060 µM. Regarding `CC(O)CCl` (stereo unspecified), the Potency was 2590 µM. On to `ClCc1ccc(CCl)cc1`, for which the Potency was 0.223 µM. Regarding `C1CCC(C2CCCCC2)CC1`, the outcome was “inactive; moa not determined either due to lack of toxicity at saturation or late test res”. In the case of `ClCCCCCCl`, the Potency was 179 µM. `CCOC(CN(C)CC(OCC)OCC)OCC`: the Potency is 2410 µM.

As for `C1CCOC1`, the Potency was 30000 µM. With `CCC(=O)c1ccc(N)cc1`, the Potency was 979 µM.

`c1cc(CCc2ccncc2)ccn1`: the Potency was 820 µM. Consider `O[C@@H]1CCCC[C@H]1c1ccccc1`, for which the Potency is 252 µM.

In the case of `COC(C)=O`, the Potency was 4820 µM. For the molecule `Clc1nc(Cl)c(Cl)c(Cl)c1Cl`, the Potency is 1.87 µM. Take `CCOP(=S)(OCC)Oc1ccc(S(C)=O)cc1` (stereo unspecified): the Potency is 140 µM. Consider `ClC(Cl)=C(Cl)C(Cl)=C(Cl)Cl`, for which the Potency is 0.345 µM.

Turning to `CCC(C)N` (stereo unspecified), the Potency is 3760 µM. Turning to `C#CC(C)O` (stereo unspecified), the Potency was 167 µM. Regarding `CC1CNCC(C)O1` (stereo unspecified), the Potency is 3360 µM. Same read-out and setting: then `O=CN(c1ccccc1)c1ccccc1`, with 154 µM. The same measure, in the same setting: under `CC(C)c1ccc2c(c1)CC[C@H]1[C@](C)(C(=O)O)CCC[C@]21C` stands 6.99 µM. `COc1ccc(O)cc1`: the Potency was 886 µM. The same measure, in the same setting: then `COC(=O)c1ccc(Cl)cc1[N+](=O)[O-]`, with 128 µM; and `CCCOC(C)=O`, with 587 µM. Regarding `c1ccc(CC2=NCCN2)cc1`, the Potency is 1800 µM. For `CCCCC(CC)CO` (stereo unspecified), the Potency was 217 µM. Regarding `C1N2CN3CN1CN(C2)C3`, the Potency was 355000 µM. With `CCCCCCCCCCCC(N)=O`, the outcome is “inactive; moa not determined either due to lack of toxicity at saturation or late test res”. Turning to `CCNCC`, the Potency is 11700 µM. The same measure, in the same setting: then `CCCCCCCCCCCCN`, with 0.556 µM.

Consider `O=c1cccc(Cl)[nH]1`, for which the Potency was 1650 µM.

Turning to `S=c1[nH]c2cc(Cl)ccc2s1`, the Potency was 15.9 µM. For `OCCN1CCNCC1`, the Potency is 49200 µM. On to `ClC(Cl)=C(Cl)Cl`, for which the Potency is 99.5 µM. Same read-out and setting: under `CCCCCCOc1ccc(N)cc1` stands 15.6 µM. On the same count and under the same terms, under `C/C=C/C=C/C` stands 243 µM; under `CCCCC=O`, 150 µM; under `O=C(/C=C/C=C/c1ccc2c(c1)OCO2)N1CCCCC1`, 27.5 µM. Same read-out and setting: then `COCCCNCc1cc(OC)c(OC)c(OC)c1`, with 505 µM; and `CCOC(=O)C(Cl)C(=O)OCC`, with 4.88 µM; and `CCCCCCCCCCCCCN`, with 0.328 µM. Regarding `C1=CC2CCC1C2`, the Potency is 106 µM.

For `CCCCCO`, the Potency was 5360 µM. On the same count and under the same terms, then `CC(N)Cc1ccccc1` (stereo unspecified), with 78.2 µM; and `CC=O`, with 767 µM; and `CCCc1ccc(O)cc1`, with 80.8 µM. As for `COc1cccc(O)c1`, the Potency was 596 µM. Turning to `CCCN(CCC)CCC`, the Potency is 355 µM. As to `CC(C)C(C(=O)OC(C#N)c1cccc(Oc2ccccc2)c1)c1ccc(Cl)cc1` (stereo unspecified), the Potency is 0.0121 µM. Consider `OCC(Br)CBr` (stereo unspecified), for which the Potency was 326 µM. Regarding `CCCCCCCCC(=O)O`, the Potency was 657 µM. `Cc1cc(C)c(O)c(C)c1`: the Potency is 95.4 µM. Regarding `N#Cc1ccccc1C(F)(F)F`, the Potency is 247 µM.

For the molecule `CN(C)c1ccccn1`, the Potency was 1040 µM. As to `O=C(Oc1ccccc1)c1ccccc1C(=O)Oc1ccccc1`, the Potency was 0.251 µM. Still for that read-out and setting: under `Cc1ccc(C)c(C)c1` stands 64.2 µM; under `COc1ccc(OC)cc1`, 847 µM; under `CC(C)c1ccc(C=O)cc1`, 44.7 µM. As to `C=CCNc1ccccc1`, the Potency is 270 µM. On to `CCN(CC)CCO`, for which the Potency is 15200 µM. With `Cc1cccc(OP(=O)(Oc2cccc(C)c2C)Oc2cccc(C)c2C)c1C`, the outcome is “inactive; moa not determined either due to lack of toxicity at saturation or late test res”. As to `CCc1cccc(CC)c1`, the Potency was 30.9 µM. For `CCCCCCCC/C=C\CCCCCCCCO`, the outcome is “inactive; moa not determined either due to lack of toxicity at saturation or late test res”. Regarding `COC(=O)c1ccc(O)cc1O`, the Potency is 272 µM. Consider `N#Cc1ccccn1`, for which the Potency is 6970 µM.

With `OCCCl`, the Potency is 667 µM. On to `CCCCOC(=O)c1ccccc1C(=O)OCCCC`, for which the Potency is 3.59 µM.

Take `CCCCCCCCCCCC(C)=O`: the Potency was 1.81 µM. With `COc1cc(Cl)c(Cl)cc1O`, the Potency was 23.2 µM. For the molecule `Nc1ccc(Br)cn1`, the Potency is 1020 µM. On to `C=CC(C)(O)CC/C=C(\C)CCC=C(C)C` (stereo unspecified), for which the Potency was 6.43 µM. Turning to `Cc1cccc([N+](=O)[O-])c1`, the Potency is 187 µM. The same measure, in the same setting: under `CCC1(CCC(C)C)C(=O)NC(=O)NC1=O` stands 377 µM; under `C#CC1(O)CCCCC1`, 2060 µM.

Consider `NCCN`, for which the Potency is 3660 µM. For the molecule `ClCCCCCl`, the Potency is 406 µM. Consider `CC(C)(O)C(F)(F)C(F)F`, for which the Potency is 3640 µM. Take `CCOP(=O)(OCC)SCCSCC`: the Potency is 61.9 µM. Still for that read-out and setting: then `CC1(C)[C@H]2CC[C@]1(C)C(=O)C2`, with 112 µM. With `CCCSCCSCCC`, the Potency was 42.2 µM.

On to `O=[N+]([O-])c1ccccc1O`, for which the Potency is 1150 µM.
